Patent US20060100243A1 (priority 2004, published 2006)
Entries after “also recorded” stand apart in the source; their conditions may differ. Where two headings read alike, the source gives them in different places.

Legend:
[1] = test system: male Swiss-Webster mice; assay: dose response study of induced locomotor stimulation; details: for time of occurrence of stimulant effects following injection: at the active doses
[2] = target: T1, recombinant human norepinephrine transporter (Homo sapiens, UniProt P23975); assay: cell-based; details: HEK 293 cells
T1 construct: expressed in transfected cells

[3] = target: T1, recombinant human norepinephrine transporter; assay: biochemical; format: binding; details: HEK 293 cells
[4] = target: T2, recombinant human dopamine transporter (Homo sapiens, UniProt Q01959); assay: [125I]RTI-55 binding, dopamine transporter in HEK 293 cells; details: for Ki: RR/SS racemates table, HEK 293 cells
T2 construct: expressed in transfected cells

[5] = target: T2, recombinant human dopamine transporter; assay: dopamine reuptake inhibition in HEK 293 cells; format: cell-based; details: for IC50: RR/SS racemates table, HEK 293 cells
[6] = target: T3, recombinant human serotonin transporter (Homo sapiens, UniProt P31645); assay: serotonin (5HT) reuptake inhibition in HEK 293 cells; format: cell-based; details: SEROTONIN 5HT REUPTAKE (IC50), HEK 293 cells
T3 construct: expressed in transfected cells

[7] = target: T3, recombinant human serotonin transporter; assay: biochemical; format: binding
[8] = prescribed doses; cited from earlier work
[9] = RR/SS racemates table, read-out: NOREPINEPHRINE NE REUPTAKE (IC50)
[10] = RR/SS racemates table, read-out: NOREPINEPHRINE [I125]-RTI-55 BINDING (Ki)

T2 sequence (Q01959 whole entry): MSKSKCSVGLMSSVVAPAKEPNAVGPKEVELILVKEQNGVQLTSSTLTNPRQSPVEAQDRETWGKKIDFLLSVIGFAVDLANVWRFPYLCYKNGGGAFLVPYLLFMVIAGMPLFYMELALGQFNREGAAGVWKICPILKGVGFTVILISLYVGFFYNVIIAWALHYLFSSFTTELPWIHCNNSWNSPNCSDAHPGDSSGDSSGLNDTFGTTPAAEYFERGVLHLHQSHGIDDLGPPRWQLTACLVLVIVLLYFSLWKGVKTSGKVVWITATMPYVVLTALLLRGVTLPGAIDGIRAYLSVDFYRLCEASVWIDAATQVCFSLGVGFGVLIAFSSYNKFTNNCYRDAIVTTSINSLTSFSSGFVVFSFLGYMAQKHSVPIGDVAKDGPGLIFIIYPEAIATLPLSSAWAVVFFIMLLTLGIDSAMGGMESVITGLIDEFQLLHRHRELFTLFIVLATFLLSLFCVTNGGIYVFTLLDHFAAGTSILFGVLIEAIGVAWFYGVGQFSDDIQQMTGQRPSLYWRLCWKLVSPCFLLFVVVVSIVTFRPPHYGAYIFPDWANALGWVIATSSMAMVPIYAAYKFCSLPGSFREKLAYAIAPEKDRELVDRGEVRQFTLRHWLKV
T3 sequence (P31645 whole entry): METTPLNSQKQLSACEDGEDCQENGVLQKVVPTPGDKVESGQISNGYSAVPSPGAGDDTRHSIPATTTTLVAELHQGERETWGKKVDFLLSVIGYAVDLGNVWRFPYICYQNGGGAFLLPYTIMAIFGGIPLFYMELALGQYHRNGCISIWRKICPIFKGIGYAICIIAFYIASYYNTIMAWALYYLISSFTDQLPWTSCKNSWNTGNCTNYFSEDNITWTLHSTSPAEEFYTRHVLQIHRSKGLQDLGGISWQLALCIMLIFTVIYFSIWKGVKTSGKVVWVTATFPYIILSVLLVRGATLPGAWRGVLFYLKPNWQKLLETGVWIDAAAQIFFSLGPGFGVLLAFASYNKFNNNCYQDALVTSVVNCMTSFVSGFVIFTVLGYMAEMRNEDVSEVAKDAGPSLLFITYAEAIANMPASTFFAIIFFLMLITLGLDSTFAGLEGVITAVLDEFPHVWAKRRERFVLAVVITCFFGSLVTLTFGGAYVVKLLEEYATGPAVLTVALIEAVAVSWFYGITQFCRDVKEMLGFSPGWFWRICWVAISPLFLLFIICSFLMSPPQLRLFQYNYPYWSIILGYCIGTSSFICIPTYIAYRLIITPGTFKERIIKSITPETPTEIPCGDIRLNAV
T1 sequence (P23975 whole entry): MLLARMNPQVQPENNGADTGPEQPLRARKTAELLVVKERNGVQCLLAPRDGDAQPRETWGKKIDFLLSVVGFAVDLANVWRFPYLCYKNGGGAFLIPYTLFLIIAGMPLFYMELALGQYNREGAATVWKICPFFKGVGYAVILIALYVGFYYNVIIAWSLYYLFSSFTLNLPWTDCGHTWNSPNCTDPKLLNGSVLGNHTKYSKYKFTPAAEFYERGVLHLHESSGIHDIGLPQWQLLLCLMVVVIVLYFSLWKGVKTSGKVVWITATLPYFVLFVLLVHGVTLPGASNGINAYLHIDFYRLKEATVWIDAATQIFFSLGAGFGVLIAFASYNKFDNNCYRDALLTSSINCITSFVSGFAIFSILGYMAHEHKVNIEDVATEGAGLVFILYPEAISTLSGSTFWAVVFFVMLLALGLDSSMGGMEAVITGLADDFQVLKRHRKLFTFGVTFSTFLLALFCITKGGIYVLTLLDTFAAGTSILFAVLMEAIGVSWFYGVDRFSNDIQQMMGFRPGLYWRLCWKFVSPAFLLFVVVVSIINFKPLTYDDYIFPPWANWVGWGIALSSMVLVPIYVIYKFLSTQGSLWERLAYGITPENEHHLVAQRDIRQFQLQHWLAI

In the case of `CC(C)CC(c1ccc(Cl)cc1)C1CCCCN1` (racemic) [Sample D], the “duration of stimulant effects” value ([1]; mice, IP, 3 mg/kg) is reported as “up to 4 hours”, the “duration of stimulant effects” value ([1]; mice, IP, 10 mg/kg) is reported as ≤ 5 h and the “duration of stimulant effects” value ([1]; mice, IP, 30 mg/kg) is reported as “over 8 hours”. The “time of occurrence of stimulant effects following injection” value ([1]; mice, IP) was “at least 20 minutes”, the IC50 [2, 9] was 0.12 ± 0.04 µM and the Ki [3, 10] was 0.84 ± 0.13 µM. For the same molecule, the Ki ([4]; read-out: DOPAMINE [I125]-RTI-55 BINDING (Ki)) was 0.016 ± 0.004 µM, the “potency at binding to the dopamine transporter and blocking dopamine reuptake” value ([4]; in words, binding and reuptake, compared with MPH / other samples) was “enhanced potency; also recorded: most potent” and the IC50 ([5]; read-out: DOPAMINE DA REUPTAKE (IC50)) was 0.0086 ± 0.0029 µM.
In the case of `CC(C)CC(c1ccc(Cl)c(Cl)c1)C1CCCCN1C` (single isomer, unassigned) [O], the IC50 ([6]; RR/SS racemates table) is reported as 1.4 ± 0.5 µM, the IC50 [2, 9] is reported as 0.029 ± 0.003 µM and the Ki [3, 10] is reported as 0.19 ± 0.06 µM. For the same molecule, the Ki ([4]; DOPAMINE [I125]-RTI-55 BINDING (Ki)) was 0.0066 ± 0.0009 µM, the IC50 ([5]; DOPAMINE DA REUPTAKE (IC50)) was 0.013 ± 0.004 µM and the “NE/DA REUPTAKE” value ([5]; ratio of NE/DA reuptake IC50, selectivity for dopamine over norepinephrine transporter) was 2.2. The Ki ([7]; RR/SS racemates table, HEK 293 cells, read-out: SEROTONIN [I125]-RTI-55 BINDING (Ki)) was 1.3 ± 0.2 µM.
In the case of `COC(=O)C(c1ccccc1)C1CCCCN1` (stereo not drawn) [MPH, methylphenidate, reference compound], the IC50 ([6]; RR/SS racemates table) is listed as 55 ± 16 µM, the IC50 ([6]; RS/SR racemates table) is listed as 55 ± 16 µM and the “time of maximum drug concentration after oral administration” value [8] is listed as “about two hours”. The “time of occurrence of stimulant effects following injection” value ([1]; mice, IP) was ≤ 10 min, the “duration of stimulant effects” value ([1]; mouse, in vivo) was “up to 4 hours” and the IC50 ([2]; NORE[…] REUPTAKE (IC50), RR/SS racemates table) was 0.038 ± 0.004 µM. For the same molecule, the IC50 ([2]; NORE[…] REUPTAKE (IC50), RS/SR racemates table) was 0.038 ± 0.004 µM, the Ki ([3]; NOREPINEPHRINE [I125]-RTI-55 BINDING (Ki), RR/SS racemates table) was 1.8 ± 0.8 µM and the Ki ([3]; NOREPINEPHRINE [I125]-RTI-55 BINDING (Ki), RS/SR racemates table) was 1.8 ± 0.8 µM. For the same molecule, the “binding to or reuptake at the serotonin transporter” value [7] was “neither MPH nor the MPH analogs demonstrated significant binding to or reuptake at the serotonin transporter” and the Ki ([7]; SEROTONIN [I125]-RTI-55 BINDING (Ki)) was 40 ± 8 µM.
In the case of `COC(=O)[C@H]1[C@@H](OC(=O)c2ccccc2)C[C@@H]2CC[C@H]1N2C` [cocaine], the “period of maximal stimulant effects” value ([1]; mice, IP, 20 mg/kg) is reported as ≤ 30 min, the “duration of stimulant effects” value ([1]; mice, IP, 10, 20, and 40 mg/kg) is reported as “up to 2 hours” and the “time of occurrence of stimulant effects following injection” value ([1]; mice, IP) is reported as ≤ 10 min.
